Results published in patent US7435837B2, “Dihydrobenzofuranyl alkanamine derivatives and methods for using same” (Wyeth, priority 2003, dated 2008).

How the values were obtained:
[1] = target: T1, human 5-HT2C receptor (Homo sapiens, UniProt P28335); assay: 5-HT2C receptor-stimulated calcium mobilization (FLIPR) in CHO cells; format: cell-based; conditions: for Emax: CHO, percentage of the response observed with a maximally effective concentration of 5-HT, read-out: 5-HT2C Function Emax (%); for EC50: calcium mobilization, CHO cells stably expressing human 5-HT2C, read-out: 5-HT2C Function EC50;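 as to all read-outs here: Fluo-3-AM fluorescence read on FLIPR every 1 s, agonist added after 10 baseline reads, response taken as peak minus lowest raw fluorescence count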
T1 sequence (P28335 33-458): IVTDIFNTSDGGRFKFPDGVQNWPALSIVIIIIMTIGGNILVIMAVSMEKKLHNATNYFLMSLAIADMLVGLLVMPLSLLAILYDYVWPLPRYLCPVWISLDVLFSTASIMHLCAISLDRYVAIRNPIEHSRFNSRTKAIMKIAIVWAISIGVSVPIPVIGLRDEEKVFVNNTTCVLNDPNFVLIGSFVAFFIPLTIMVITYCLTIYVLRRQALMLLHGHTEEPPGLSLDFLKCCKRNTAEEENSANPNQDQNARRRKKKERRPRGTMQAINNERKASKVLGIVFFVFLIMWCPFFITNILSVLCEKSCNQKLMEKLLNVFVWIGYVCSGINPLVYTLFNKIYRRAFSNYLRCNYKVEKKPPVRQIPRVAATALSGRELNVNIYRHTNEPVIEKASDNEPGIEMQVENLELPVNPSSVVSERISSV

[2] = target: T2, human 5-hydroxytryptamine-2C (h5-HT2C) receptor (Homo sapiens, UniProt P28335); assay: [125I]DOI binding to membranes of CHO cells expressing the human 5-HT2C receptor; conditions: [125I]DOI radioligand, CHO cell membranes, room temperature 60 min; read-out: 5-HT2C Affinity Ki
T2 construct: expressed in transfected cells; host or cells: CHO (Chinese Hamster Ovary) cells; membranes
T2 sequence (P28335 33-458): T1 sequence (P28335 33-458)

Emax [1] [%] | EC50 [1] [nM] | Ki [2] [nM] | SMILES
100 | 7 | 0.8 | COc1ccccc1-c1cc(C)cc2c1OC(CN)C2 (racemic) [Example 284, (±)-{[7-(2-methoxyphenyl)-5-methyl-2,3-dihydro-1-benzofuran-2-yl]methyl}amine]
100 | 6 | 0.76 | Cc1cc2c(c(-c3ccccc3Cl)c1)OC(CN)C2 (racemic) [Example 286, (±)-{[7-(2-chlorophenyl)-5-methyl-2,3-dihydro-1-benzofuran-2-yl]methyl}amine]
90 | 21 | 0.13 | Cc1cc2c(c(-c3ccccc3C(F)(F)F)c1)OC(CN)C2 (racemic) [Example 287, (±)-({5-methyl-7-[2-(trifluoromethyl)phenyl[-2,3-dihydro-7-benzofuran-2-yl}methyl)amine]
100 | 38 | 7.1 | Cc1cc2c(c(-c3cccc(Cl)c3)c1)OC(CN)C2 (racemic) [Example 288, (±)-{[7-(3-chlorophenyl)-5-methyl-2,3-dihydro-1-benzofuran-2-yl]methyl}amine]
100 | 44 | 1 | Cc1cccc(-c2cc(C)cc3c2OC(CN)C3)c1 (racemic) [Example 289, (±)-{[7-(3-methylphenyl)-5-methyl-2,3-dihydro-1-benzofuran-2-yl]methyl}amine]
80 | 58 | 1.7 | Cc1ccc(-c2cc(C)cc3c2OC(CN)C3)cc1 (racemic) [Example 290, (±)-{[7-(4-methylphenyl)-5-methyl-2,3-dihydro-1-benzofuran-2-yl]methyl}amine]
100 | 22 | 0.4 | Cc1cc2c(c(-c3ccc(F)cc3)c1)OC(CN)C2 (racemic) [Example 291, (±)-{[7-(4-fluorophenyl)-5-methyl-2,3-dihydro-1-benzofuran-2-yl]methyl}amine]
100 | 66 | 4.9 | Cc1cc2c(c(-c3ccc(Cl)cc3)c1)OC(CN)C2 (racemic) [Example 292, (±)-{[7-(4-chlorophenyl)-5-methyl-2,3-dihydro-1-benzofuran-2-yl]methyl}amine]
90 | 7 | 3.8 | COc1ccc(-c2cc(C)cc3c2OC(CN)C3)cc1 (racemic) [Example 293, (±)-{[7-(4-methoxyphenyl)-5-methyl-2,3-dihydro-1-benzofuran-2-yl]methyl}amine]
90 | 8 | 0.11 | COc1cccc(-c2cc(C)cc3c2OC(CN)C3)c1OC (racemic) [Example 294, (±)-{[7-(2,3-dimethoxyphenyl)-5-methyl-2,3-dihydro-1-benzofuran-2-yl]methyl}amine]
100 | 0.73 | 0.56 | Cc1cc2c(c(-c3ccc(Cl)cc3Cl)c1)OC(CN)C2 (racemic) [Example 297, (±)-{[7-(2,4-dichlorophenyl)-5-methyl-2,3-dihydro-1-benzofuran-2-yl]methyl}amine]
90 | 3 | 0.1 | Cc1cc2c(c(-c3cc(Cl)ccc3Cl)c1)OC(CN)C2 (racemic) [Example 300, (±)-{[7-(2,5-dichlorophenyl)-5-methyl-2,3-dihydro-1-benzofuran-2-yl]methyl}amine]
90 | 31 | 2 | Cc1cc2c(c(-c3c(C)cccc3C)c1)OC(CN)C2 (racemic) [Example 301, (±)-{[7-(2,6-dimethylphenyl)-5-methyl-2,3-dihydro-1-benzofuran-2-yl]methyl}amine]
100 | 2 | 0.3 | Cc1cc2c(c(-c3c(Cl)cccc3Cl)c1)OC(CN)C2 (racemic) [Example 302, (±)-{[7-(2,6-dichlorophenyl)-5-methyl-2,3-dihydro-1-benzofuran-2-yl]methyl}amine]
100 | 0.64 | 0.58 | CCc1cc2c(c(-c3ccccc3Cl)c1)OC(CN)C2 (racemic) [Example 306, (±)-{[5-ethyl-7-(2-chlorophenyl)-2,3-dihydro-1-benzofuran-2-yl]methyl}amine]
90 | 49 | 1 | Cc1ccccc1-c1cc(C(C)C)cc2c1OC(CN)C2 (racemic) [Example 307, (±)-{[5-isopropyl-7-(2-methylphenyl)-2,3-dihydro-1-benzofuran-2-yl]methyl}amine]
90 | 24 | 0.9 | CC(C)c1cc2c(c(-c3ccccc3Cl)c1)OC(CN)C2 (racemic) [Example 308, (±)-{[5-isopropyl-7-(2-chlorophenyl)-2,3-dihydro-1-benzofuran-2-yl]methyl}amine]
90 | 107 | 8 | Cc1ccccc1-c1cc(C2CCCC2)cc2c1OC(CN)C2 (racemic) [Example 309, (±)-{[5-cyclopentyl-7-(2-methylphenyl)-2,3-dihydro-1-benzofuran-2-yl]methyl}amine]
90 | 137 | 13 | NCC1Cc2cc(C3CCCC3)cc(-c3ccccc3Cl)c2O1 (racemic) [Example 310, (±)-{[5-cyclopentyl-7-(2-chlorophenyl)-2,3-dihydro-1-benzofuran-2-yl]methyl}amine]
90 | 63 | 25 | Cc1ccccc1-c1cc(C#N)cc2c1OC(CN)C2 (racemic) [Example 311, (±)-2-(aminomethyl)-7-(2-methylphenyl)-2,3-dihydro-1-benzofuran-5-carbonitrile]
90 | 25 | 15 | N#Cc1cc2c(c(-c3ccccc3Cl)c1)OC(CN)C2 (racemic) [Example 312, (±)-2-(aminomethyl)-7-(2-chlorophenyl)-2,3-dihydro-1-benzofuran-5-carbonitrile]
90 | 70 | 164 | NCC1Cc2cc(C(F)(F)F)cc(-c3ccccc3F)c2O1 (racemic) [Example 313, (±)-{[5-(trifluoromethyl)-7-(2-fluorophenyl)-2,3-dihydro-1-benzofuran-2-yl]methyl}amine]
90 | 42 | 18 | Cc1ccccc1-c1cc(C(F)(F)F)cc2c1OC(CN)C2 (racemic) [Example 314, (±)-{[5-(trifluoromethyl)-7-(2-methylphenyl)-2,3-dihydro-1-benzofuran-2-yl]methyl}amine]
90 | 19 | 25 | NCC1Cc2cc(C(F)(F)F)cc(-c3ccccc3Cl)c2O1 (racemic) [Example 315, (±)-{[5-(trifluoromethyl)-7-(2-chlorophenyl)-2,3-dihydro-1-benzofuran-2-yl]methyl}amine]
80 | 228 | 34 | COc1ccc(-c2cc(C(F)(F)F)cc3c2OC(CN)C3)cc1 (racemic) [Example 326, (±)-{[5-(trifluoromethyl)-7-(4-methoxyphenyl)-2,3-dihydro-1-benzofuran-2-yl]methyl}amine]
